These results are taken from ChEMBL document CHEMBL3390848, “Affinity selection and sequence-activity relationships of HIV-1 membrane fusion inhibitors directed at the drug-resistant variants” (Medchemcomm, 2010).

Experiment [1] deals with Human immunodeficiency virus 1. Nature of the experiment: Thermal stability of HIV1 envelope glycoprotein gp41 His-tagged N-terminal heptad repeat N36-drug complex assessed as thermal unfolding transition state by measuring molar ellipticity at 4 to 90 degC by circular dichroic spectra analysis.
In experiment [2] the test system is Human immunodeficiency virus 1. Nature of the experiment: Thermal stability of HIV1 envelope glycoprotein gp41 His-tagged N-terminal heptad repeat N36 N43D mutant-drug complex assessed as thermal unfolding transition state by measuring molar ellipticity at 4 to 90 degC by circular dichroic spectra analysis.
The subject of experiment [3] is Envelope glycoprotein gp160 (Human immunodeficiency virus 1), Q72502 [V38A]. In words: Binding affinity to HIV1 His-tagged N-terminal heptad repeat of envelope glycoprotein gp41 assessed as recovery of N36 V38A mutant-drug complex after 2 hrs by LC-MS analysis. Also noted: concentration or dose not given beside the values.
The subject of experiment [4] is Human immunodeficiency virus 1. In words: Binding affinity to HIV1 His-tagged N-terminal heptad repeat of envelope glycoprotein gp41 assessed as recovery of N36-drug complex at 1 uM after 2 hrs by LC-MS analysis.
Experiment [5] relates to Human immunodeficiency virus 1. Nature of the experiment: Binding affinity to HIV1 His-tagged N-terminal heptad repeat of envelope glycoprotein gp41 assessed as recovery of N36-drug complex at 0.6 uM after 2 hrs by LC-MS analysis.
Experiment [6] has as its system Human immunodeficiency virus 1. Nature of the experiment: Antiviral activity against HIV1 NL4-3 harboring gp41 D36G mutant infected in human HeLa cells expressing CD4-LTR-beta-gal assessed as inhibition of viral replication after 48 hrs by MAGI assay. In kind it is functional, organism-based.
Experiment [7] deals with Envelope glycoprotein gp160 (Human immunodeficiency virus 1), Q72502 [V38A]. In words: Thermal stability of HIV1 envelope glycoprotein gp41 His-tagged N-terminal heptad repeat N36 V38A mutant-drug complex assessed as thermal unfolding transition state by measuring molar ellipticity at 4 to 90 degC by circular dichroic spectra analysis.
Experiment [8] deals with Human immunodeficiency virus 1. Nature of the experiment: Binding affinity to HIV1 His-tagged N-terminal heptad repeat of envelope glycoprotein gp41 assessed as recovery of N36-drug complex at 10 uM after 2 hrs by LC-MS analysis.
For experiment [9], the system named is Human immunodeficiency virus 1. Nature of the experiment: Binding affinity to HIV1 His-tagged N-terminal heptad repeat of envelope glycoprotein gp41 assessed as recovery of N36-drug complex at 6 uM after 2 hrs by LC-MS analysis.
In experiment [10] the test system is Human immunodeficiency virus 1. In words: Binding affinity to HIV1 His-tagged N-terminal heptad repeat of envelope glycoprotein gp41 assessed as recovery of N36 N43D mutant-drug complex after 2 hrs by LC-MS analysis. Further details: concentration or dose not given beside the values.
Experiment [11] deals with Human immunodeficiency virus 1. In words: Binding affinity to HIV1 His-tagged N-terminal heptad repeat of envelope glycoprotein gp41 assessed as recovery of N54 N43D mutant-drug complex after 2 hrs by LC-MS analysis. Also noted: concentration or dose not given beside the values.
Experiment [12] concerns Envelope glycoprotein gp160 (Human immunodeficiency virus 1), Q72502 [V38A]. In words: Thermal stability of HIV1 envelope glycoprotein gp41 His-tagged N-terminal heptad repeat N54 V38A mutant-drug complex assessed as thermal unfolding transition state by measuring molar ellipticity at 4 to 90 degC by circular dichroic spectra analysis.
The subject of experiment [13] is Human immunodeficiency virus 1. In words: Thermal stability of HIV1 envelope glycoprotein gp41 His-tagged N-terminal heptad repeat N54-drug complex assessed as thermal unfolding transition state by measuring molar ellipticity at 4 to 90 degC by circular dichroic spectra analysis.
Experiment [14] deals with Human immunodeficiency virus 1. In words: Binding affinity to HIV1 His-tagged N-terminal heptad repeat of envelope glycoprotein gp41 assessed as recovery of N54-drug complex after 2 hrs by LC-MS analysis. Further details: concentration or dose not given beside the values.
Experiment [15] concerns Human immunodeficiency virus 1. In words: Thermal stability of HIV1 envelope glycoprotein gp41 His-tagged N-terminal heptad repeat N54 N43D mutant-drug complex assessed as thermal unfolding transition state by measuring molar ellipticity at 4 to 90 degC by circular dichroic spectra analysis.
Experiment [16] deals with Envelope glycoprotein gp160 (Human immunodeficiency virus 1), Q72502 [V38A]. Nature of the experiment: Binding affinity to HIV1 His-tagged N-terminal heptad repeat of envelope glycoprotein gp41 assessed as recovery of N54 V38A mutant-drug complex after 2 hrs by LC-MS analysis. Also noted: concentration or dose not given beside the values.

What is called Tm is the temperature at the midpoint of the melting transition. What is called EC50 is the concentration at which the effect is half-maximal.

Residues, ends and D or L forms follow the SMILES beside them.

Consider `CC[C@H](C)[C@H](NC(=O)[C@H](CCCCN)NC(=O)[C@H](CCCCN)NC(=O)[C@H](CC(=O)O)NC(=O)[C@H](Cc1c[nH]c2ccccc12)NC(=O)[C@H](CCC(=O)O)NC(=O)[C@H](CCC(=O)O)NC(=O)[C@H](Cc1c[nH]c2ccccc12)NC(C)=O)C(=O)N[C@@H](CCC(=O)O)C(=O)N[C@@H](CCC(=O)O)C(=O)N[C@@H](Cc1ccc(O)cc1)C(=O)N[C@H](C(=O)N[C@@H](CCCCN)C(=O)N[C@@H](CCCCN)C(=O)N[C@H](C(=O)N[C@@H](CCC(=O)O)C(=O)N[C@@H](CCC(=O)O)C(=O)N[C@@H](CC(C)C)C(=O)N[C@H](C(=O)N[C@@H](CCCCN)C(=O)N[C@@H](CCCCN)C(=O)N1CCC[C@H]1C(=O)N[C@@H](CCC(=O)O)C(=O)N[C@@H](CCC(=O)O)C(=O)N[C@@H](CCC(N)=O)C(=O)N[C@@H](CCC(N)=O)C(=O)N[C@@H](CCCCN)C(=O)N[C@@H](CCCCN)C(=O)N[C@@H](CC(N)=O)C(=O)N[C@@H](CCC(=O)O)C(=O)N[C@@H](CCC(=O)O)C(=O)N[C@@H](CCC(=O)O)C(=O)N[C@@H](CC(C)C)C(=O)N[C@@H](CCCCN)C(=O)N[C@@H](CCCCN)C(N)=O)[C@@H](C)CC)[C@@H](C)CC)[C@@H](C)O` (Ac-WEEWDKKIEEYTKKIEELIKKPEEQQKKNEEELKK-NH2), for which the figures for the Tm in experiment [1], in experiment [2] and in [7] were 56.1 °C, 55.6 °C and 56.3 °C, respectively. For the same compound, the Activity in [3] was 0.4%; in [4], 0.1%; in [5], 4.5%; in experiment [8], 0.4%; in [9] it was 0.2%; in [10] it was 0.3%. For the same compound, in [6], the EC50 amounted to 35 nM.
On to `CC[C@H](C)[C@H](NC(=O)[C@H](CC(C)C)NC(=O)[C@H](CCC(=O)O)NC(=O)[C@H](CCC(=O)O)NC(=O)[C@@H](NC(=O)[C@H](CCCCN)NC(=O)[C@H](CCCCN)NC(=O)[C@@H](NC(=O)[C@H](Cc1ccc(O)cc1)NC(=O)[C@H](CCC(=O)O)NC(=O)[C@H](CCC(=O)O)NC(=O)[C@@H](NC(=O)[C@H](CCCCN)NC(=O)[C@H](CCCCN)NC(=O)[C@H](CC(=O)O)NC(=O)[C@H](Cc1c[nH]c2ccccc12)NC(=O)[C@H](CCC(=O)O)NC(=O)[C@H](CCC(=O)O)NC(=O)[C@H](Cc1c[nH]c2ccccc12)NC(C)=O)[C@@H](C)CC)[C@@H](C)O)[C@@H](C)CC)C(=O)N[C@@H](CCCCN)C(=O)N[C@@H](CCCCN)C(=O)N[C@@H](Cc1c[nH]c2ccccc12)C(=O)N[C@@H](CCC(=O)O)C(=O)N[C@@H](CCC(=O)O)C(=O)N[C@@H](CCC(N)=O)C(=O)N[C@@H](CCC(N)=O)C(=O)N[C@@H](CCCCN)C(=O)N[C@@H](CCCCN)C(=O)N[C@@H](CC(N)=O)C(=O)N[C@@H](CCC(=O)O)C(=O)N[C@@H](CCC(=O)O)C(=O)N[C@@H](CCC(=O)O)C(=O)N[C@@H](CC(C)C)C(=O)N[C@@H](CCCCN)C(=O)N[C@@H](CCCCN)C(N)=O` (Ac-WEEWDKKIEEYTKKIEELIKKWEEQQKKNEEELKK-NH2), for which the Tm stood at 66.4 °C in [1], 66 °C in experiment [2] and 64.6 °C in [7]. For the same compound, the Activity in experiment [3] amounted to 1%; in [4], 0.9%; in experiment [5], 6.2%; in [8] it was 0.5%; in experiment [9], 0.3%; in [10] it was 2.4%. Besides, the concentration for a half-maximal effect (EC50) in [6] came out at 3.1 nM.
With `CC[C@H](C)[C@H](NC(=O)[C@H](CC(C)C)NC(=O)[C@H](CCC(=O)O)NC(=O)[C@H](CCC(=O)O)NC(=O)[C@@H](NC(=O)[C@H](CC(C)C)NC(=O)[C@H](CO)NC(=O)[C@@H](NC(=O)[C@H](Cc1ccc(O)cc1)NC(C)=O)[C@@H](C)O)[C@@H](C)CC)C(=O)N[C@@H](CCCCN)C(=O)N[C@@H](CCCCN)C(=O)N[C@@H](CC(C)C)C(=O)N[C@@H](CCC(=O)O)C(=O)N[C@@H](CCC(=O)O)C(=O)N[C@@H](CCC(N)=O)C(=O)N[C@@H](CCC(N)=O)C(=O)N[C@@H](CCCCN)C(=O)N[C@@H](CCCCN)C(=O)N[C@@H](CC(N)=O)C(=O)N[C@@H](CCC(=O)O)C(=O)N[C@@H](CCC(=O)O)C(=O)N[C@@H](CCC(=O)O)C(=O)N[C@@H](CC(C)C)C(=O)N[C@@H](CCCCN)C(=O)N[C@@H](CCCCN)C(=O)N[C@@H](CC(C)C)C(=O)N[C@@H](CCC(=O)O)C(=O)N[C@@H](CCC(=O)O)C(=O)N[C@@H](Cc1c[nH]c2ccccc12)C(=O)N[C@@H](C)C(=O)N[C@@H](CCCCN)C(=O)N[C@@H](CCCCN)C(=O)N[C@@H](Cc1c[nH]c2ccccc12)C(=O)N[C@@H](CC(N)=O)C(=O)N[C@@H](Cc1c[nH]c2ccccc12)C(=O)N[C@@H](Cc1ccccc1)C(N)=O` (Ac-YTSLIEELIKKLEEQQKKNEEELKKLEEWAKKWNWF-NH2), the Activity stood at 10.8% in experiment [11], 10.4% in experiment [14] and 10.1% in experiment [16]. Moreover, the Tm in experiment [12] is 57.5 °C; in [13], 77.6 °C; in [15], 74 °C. Besides, the EC50 in [6] was determined as 0.4 nM.
For the compound `CC[C@H](C)[C@H](NC(=O)[C@H](CC(C)C)NC(=O)[C@H](CO)NC(=O)[C@@H](NC(=O)[C@H](Cc1ccc(O)cc1)NC(C)=O)[C@@H](C)O)C(=O)N[C@@H](CCC(=O)O)C(=O)N[C@@H](CCC(=O)O)C(=O)N[C@@H](CC(C)C)C(=O)N[C@H](C(=O)N[C@@H](CCCCN)C(=O)N[C@@H](CCCCN)C(=O)N1CCC[C@H]1C(=O)N[C@@H](CCC(=O)O)C(=O)N[C@@H](CCC(=O)O)C(=O)N[C@@H](CCC(N)=O)C(=O)N[C@@H](CCC(N)=O)C(=O)N[C@@H](CCCCN)C(=O)N[C@@H](CCCCN)C(=O)N[C@@H](CC(N)=O)C(=O)N[C@@H](CCC(=O)O)C(=O)N[C@@H](CCC(=O)O)C(=O)N[C@@H](CCC(=O)O)C(=O)N[C@@H](CC(C)C)C(=O)N[C@@H](CCCCN)C(=O)N[C@@H](CCCCN)C(=O)N[C@@H](CC(C)C)C(=O)N[C@@H](CCC(=O)O)C(=O)N[C@@H](CCC(=O)O)C(=O)N[C@@H](Cc1c[nH]c2ccccc12)C(=O)N[C@@H](C)C(=O)N[C@@H](CCCCN)C(=O)N[C@@H](CCCCN)C(=O)N[C@@H](Cc1c[nH]c2ccccc12)C(=O)N[C@@H](CC(N)=O)C(=O)N[C@@H](Cc1c[nH]c2ccccc12)C(=O)N[C@@H](Cc1ccccc1)C(N)=O)[C@@H](C)CC` (Ac-YTSLIEELIKKPEEQQKKNEEELKKLEEWAKKWNWF-NH2), the values for the Activity in experiment [11], in experiment [14] and in experiment [16] were 0.3%, 0.2% and 0%, respectively. Moreover, the values for the Tm in [12], in experiment [13] and in [15] were 49.7 °C, 55.5 °C and 55 °C, respectively. The EC50 in experiment [6] is 44 nM.
With `CC[C@H](C)[C@H](NC(=O)[C@H](CC(C)C)NC(=O)[C@H](CCC(=O)O)NC(=O)[C@H](CCC(=O)O)NC(=O)[C@@H](NC(=O)[C@H](CC(C)C)NC(=O)[C@H](CO)NC(=O)[C@@H](NC(=O)[C@H](Cc1ccc(O)cc1)NC(C)=O)[C@@H](C)O)[C@@H](C)CC)C(=O)N[C@@H](CCCCN)C(=O)N[C@@H](CCCCN)C(=O)N[C@@H](C)C(=O)N[C@@H](CCC(=O)O)C(=O)N[C@@H](CCC(=O)O)C(=O)N[C@@H](CCC(N)=O)C(=O)N[C@@H](CCC(N)=O)C(=O)N[C@@H](CCCCN)C(=O)N[C@@H](CCCCN)C(=O)N[C@@H](CC(N)=O)C(=O)N[C@@H](CCC(=O)O)C(=O)N[C@@H](CCC(=O)O)C(=O)N[C@@H](CCC(=O)O)C(=O)N[C@@H](CC(C)C)C(=O)N[C@@H](CCCCN)C(=O)N[C@@H](CCCCN)C(=O)N[C@@H](CC(C)C)C(=O)N[C@@H](CCC(=O)O)C(=O)N[C@@H](CCC(=O)O)C(=O)N[C@@H](Cc1c[nH]c2ccccc12)C(=O)N[C@@H](C)C(=O)N[C@@H](CCCCN)C(=O)N[C@@H](CCCCN)C(=O)N[C@@H](Cc1c[nH]c2ccccc12)C(=O)N[C@@H](CC(N)=O)C(=O)N[C@@H](Cc1c[nH]c2ccccc12)C(=O)N[C@@H](Cc1ccccc1)C(N)=O` (Ac-YTSLIEELIKKAEEQQKKNEEELKKLEEWAKKWNWF-NH2), the Activity in experiment [11] came to 10.2%; in experiment [14] it was 10%; in [16], 10%. For the same compound, the Tm in [12] amounted to 64.6 °C; in experiment [13], 80.1 °C; in [15], 71.9 °C. Besides, the EC50 in experiment [6] turned out to be 0.3 nM.
